Here are results for 28 molecules from patent USRE39088E1, “Amide compounds and use of the same” (Japan Tobacco, Inc., priority 1995, dated 2006).

One test concerns ALT in blood. Briefly: Suppression of LPS/D-galactosamine-induced hepatitis. Type of test: in vivo. To be noted: tail vein, 10 minutes before LPS/D-galactosamine, ALT in blood at 6 hours, male C57BL/6 mice; for inhibition in vivo at 10 mg/kg / inhibition in vivo at 5 mg/kg: Mus musculus, iv. As to the method:
Suppression of LPS/D-galactosamine-induced hepatitis
LPS (5 μg/kg)D-galactosamine (500 mg/kg) in physiological saline was intraperitoneally injected to male C57BL/6 mice to induce hepatitis. Six hours after the injection of LPS/D-galactosamine in physiological saline, blood was taken from the mice orbital venosus plexus. Plasma was separated from the blood, and ALT in blood was determined by a biochemical analyzer. The test sample was administered from the tail vein at 10 minutes before the injection of LPS/D-galactosamine in physiological saline, and the degree of suppression was investigated. The suppression by the test sample is shown in the ratio relative to the suppression in the control group.
Suppression (%)=100-(ALT amount of group treated with test sample/ALT amount of control group)×100

The subject of another test is IL-1. Briefly: Suppression of production of inflammatory cytokines: IL-1 in LPS-stimulated human peripheral blood monocytes (ELISA). To be noted: Monocyte, read-out: IC50 (μM) IL-1β. The test is classed as cell-based. As to the method: (§1) Suppression of production of inflammatory cytokines
(§2) Thirty ml of human peripheral blood added with heparin was placed on Ficol-Paque (15 ml), and centrifuged at 400 G for 40 minutes at room temperature. The obtained monocyte fraction layers were collected and washed three times with E-MEM medium. The cells were adjusted to a final concentration of 0.5×10^5 cells/800 μl with RPMI-1640 medium containing 5% bovine fetal serum (2-mercaptoethanol), and seeded in a 24 well plant by 800 μl. A test sample (100 μl) was added and 100 μl of lipopolysarcharide (LPS, 100 μg/ml) was added one hour later. The supernatant was taken at 20 hours after stimulation with LPS, and amounts of various cytokines were determined using an ELISA kit.

The test system of another test is IL-8. The test can be described thus: Suppression of production of inflammatory cytokines: IL-8 in LPS-stimulated human peripheral blood monocytes (ELISA). The following applies: supernatant 20 hours after LPS. Type of test: cell-based. As to the method:
as §1, §2
A general note: ELISA stands for enzyme-linked immunosorbent assay.

In the next test the test system is TNF-α. The test can be described thus: Suppression of production of inflammatory cytokines: TNF-α in LPS-stimulated human peripheral blood monocytes (ELISA). The test is classed as cell-based. The following applies: Monocyte, read-out: IC50 (μM) TNF. The procedure:
as §1, §2

The subject of test [1] is TNF α in the peritoneal fluid. Briefly: Suppression of LPS-induced peritonitis. Type of test: in vivo, male Balb/c mice. To be noted: test sample 50 mg/kg from the tail vein 60 minutes before LPS i.p.; TNF α in peritoneal fluid one hour after LPS, relative to control group; ** = p<0.01 from control. As to the method:
Suppression of LPS-induced peritonitis
LPS (30 μg/ml, 1 ml) prepared with physiological saline containing 0.5% CMC (carboxymethylcellulose) was infra-peritoneally injected into male Balb/c mice to induce-peritonitis. One hour later, the mice were killed with carbon dioxide, and the amount of TNF α in the peritoneal fluid was determined using an ELISA kit.
The test sample (50 mg/kg) was administered from the tail vein at 60 minutes before LPS injection, and the degree of suppression was investigated. The suppression by the test sample is shown in the ratio relative to the suppression in the control group.
Suppression (%)=100-(TNR amount of group treated with test sample/TNF amount of control group)×100
The results are shown in Table 89 wherein ** means the presence of significant difference by p<0.01 from the control group.

Setting [2] is: LPS-stimulated human peripheral blood monocytes, supernatant 20 hours after LPS, ELISA.

SMILES strings stand for the structures. Counter-ions that a name gives are not always drawn. Like-named read-outs stand apart in the source and are kept apart here.

The term inhibition in vivo denotes how much of the control response was suppressed. A lower inhibition in vivo goes with a weak effect. In the test with ALT in blood, `COC(=O)[C@H](Cc1ccccc1)NC(=O)c1cc(Cl)c(OCCN2CCN[C@@H](C)C2)c(Cl)c1OC(=O)c1ccccc1` [Example 123] showed an inhibition in vivo at 10 mg/kg of 41%.

One may read the IC50 as the concentration that gives 50% inhibition. With `CNCCCCOc1c(Cl)cc(C(=O)N[C@@H](Cc2ccccc2)C(=O)OC)c(OC(=O)c2ccccc2)c1Cl` [Example 105, N-[2-Benzoyloxy-3,5-dichloro-4-(4-methylaminobutoxy)benzoyl]-L-phenylalanine methyl ester hydrochloride], the inhibition in vivo at 10 mg/kg in the test with ALT in blood worked out at 40%. For the same molecule, the 50% inhibitory concentration (IC50) in the test with IL-1 (setting [2]) was 0.001 µM; with IL-8 (Homo sapiens, Monocyte, 20 h), 0.005 µM; in the test with TNF-α (setting [2]) it was 0.004 µM.

Take `COC(=O)[C@H](Cc1ccccc1)NC(=O)c1ccc(OCCCCCCN)cc1O` [Example 6]: the half-maximal inhibitory concentration (IC50) turned out to be 14 µM in the test with IL-1 (setting [2]); 14 µM in the test on IL-8 (Homo sapiens, Monocyte, 20 h); 6 µM in the test with TNF-α (setting [2]).

Regarding `CCOC(=O)[C@H](Cc1ccccc1)NC(=O)c1ccc(-c2noc(CCCCNC)n2)cc1O.Cl` [Example 148, (2S)-3-Phenyl-2-[4-[5-(4-methylaminobutyl)-1,2,4-oxadizol-3-yl]-2-hydroxybenzoylamino]propionic acid ethyl ester hydrochloride], the “Inhibition (%)” value in test [1] came to 19%. Further, in the test on IL-8, 4 µM corresponded to half-maximal inhibition (IC50).

`NCCCCOc1c(Cl)cc(C(=O)N[C@@H](Cc2ccccc2)C(=O)OC2CCCCC2)c(O)c1Cl` [Example 45] yielded an inhibition in vivo at 10 mg/kg in the test with ALT in blood of 30%. The concentration for half-maximal inhibition (IC50) was determined as 0.0008 µM in the test on IL-1 (setting [2]); 0.004 µM in the test with IL-8 (Homo sapiens, Monocyte, 20 h); 0.004 µM in the test on TNF-α (setting [2]).

`CNCCCCOc1c(Cl)cc(C(=O)N[C@@H](Cc2ccccc2)C(=O)OC)c(O)c1Cl.Cl` [Example 1, N-[3,5-Dichloro-2-hydroxy-4-(4-methylaminobutoxy)benzoyl]-L-phenylalanine methyl ester hydrochloride] displayed an inhibition in vivo at 5 mg/kg in the test on ALT in blood (dose 5 mg/kg) of 88%. The inhibition in vivo at 10 mg/kg in the test with ALT in blood was 78%. The half-inhibitory concentration (IC50) was 0.002 µM in the test on IL-1 (Homo sapiens, 20 h); 0.009 µM in the test with IL-8 (Monocyte); 0.008 µM with TNF-α (Homo sapiens, 20 h). Besides, the “Inhibition (%)” value in test [1] is 64** %.

In the test on ALT in blood, `CC(C)OC(=O)[C@H](Cc1ccccc1)NC(=O)c1cc(Cl)c(OCCCCN)c(Cl)c1O` [Example 27] had an inhibition in vivo at 10 mg/kg of 67%. In the test with IL-8 (Homo sapiens, Monocyte, 20 h), this molecule displayed an IC50 of under 0.01 µM.

Regarding `CCOC(=O)[C@H](Cc1ccccc1)NC(=O)c1cc(Cl)c(OC(=O)CCN2CCNCC2)c(Cl)c1O` [Example 155, N-[3,5-Dichloro-2-hydroxy-4-(3-piperazinylpropionyloxy)benzoyl]-L-phenylalanine ethyl ester dihydrochloride], the “Inhibition (%)” value in test [1] is 28** %. In addition, in the test on IL-8 (Monocyte), half-maximal inhibition (IC50) required 0.2 µM.

For `CNCCCCOc1c(Cl)cc(C(=O)N[C@@H](Cc2ccccc2)C(=O)NCC(=O)O)c(O)c1Cl` [Example 50], the inhibition in vivo at 10 mg/kg in the test with ALT in blood worked out at 15%. Also, 28 µM corresponded to half-maximal inhibition with IL-8 (Homo sapiens, Monocyte, 20 h) (IC50).

On to `Cl.NCCCCOc1c(Cl)cc(C(=O)N[C@@H](Cc2ccccc2)C(=O)Nc2ccccc2)c(O)c1Cl` [Example 138, N-[3,5-Dichloro-2-hydroxy-4-(4-aminobutoxy)benzoyl]-L-phenyl-alanylaminobenzene hydrochloride], for which, in the test on ALT in blood (dose 5 mg/kg), the “Inhibition (%)” value amounted to 22%. In addition, the IC50 with IL-8 came out at 1 µM.

In the test on ALT in blood, `CCOC(=O)C(Cc1ccccc1)NC(=O)c1cc(Cl)c(OCCCCNC)c(Cl)c1OC(C)=O` (centres unmarked) [Example 117] had an inhibition in vivo at 10 mg/kg of 54%. This molecule also had a half-inhibitory concentration (IC50) with IL-8 (Homo sapiens, Monocyte, 20 h) of under 0.01 µM.

For the molecule `CCOC(=O)C(Cc1ccccc1)NC(=O)c1cc(Cl)c(OCCCCNC)c(Cl)c1O` (centres unmarked) [Example 22], the inhibition in vivo at 10 mg/kg with ALT in blood was 51%. The IC50 in the test on IL-8 was under 0.01 µM.

On to `CCCCCCOC(=O)[C@H](Cc1ccccc1)NC(=O)c1cc(Cl)c(OCCCCNC)c(Cl)c1O` [Example 31], for which the inhibition in vivo at 5 mg/kg with ALT in blood (dose 5 mg/kg) stood at 87%. The IC50 in the test on IL-8 (Homo sapiens, Monocyte, 20 h) was under 0.01 µM.

As for `COC(=O)[C@H](Cc1ccccc1)NC(=O)c1ccc(OCCCN)cc1O` [Example 3], the concentration for half-maximal inhibition (IC50) with IL-1 (setting [2]) was over 30 µM; in the test with IL-8 (Homo sapiens, Monocyte, 20 h), over 30 µM; with TNF-α (setting [2]), 14 µM.

In the case of `CNCCCCOc1c(Cl)cc(C(=O)N[C@@H](Cc2ccccc2)C(=O)OC2CCCCC2)c(O)c1Cl` [Example 46], in the test with ALT in blood, testing at 10 mg/kg gave an inhibition in vivo of 57%. For the same molecule, the concentration for half-maximal inhibition (IC50) in the test on IL-8 (Homo sapiens, Monocyte, 20 h) was under 0.01 µM.

In the test with ALT in blood, `COC(=O)[C@H](Cc1ccccc1)NC(=O)c1cc(Cl)c(OCCOCCN(C)C)c(Cl)c1O` [Example 37] registered an inhibition in vivo at 10 mg/kg of 80%. In the test on IL-8 (Homo sapiens, Monocyte, 20 h), half-maximal inhibition (IC50) was put at 0.3 µM.

The molecule `CCOC(=O)[C@H](Cc1ccccc1)NC(=O)c1cc(Cl)c(OCCN2CCN(C)CC2)c(Cl)c1O` [Example 2, N-{3,5-Dichloro-2-hydroxy-4-[2-(4-methylpiperazin-1-yl)ethoxy]-benzoyl}-L-phenylalanine ethyl ester dihydrochloride] showed an inhibition in vivo at 10 mg/kg with ALT in blood of 65%. The molecule further yielded an IC50 with IL-8 (Homo sapiens, Monocyte, 20 h) of 0.01 µM.

For `CCSC(=O)C(Cc1ccccc1)NC(=O)c1cc(Cl)c(OCCCCN)c(Cl)c1O.Cl` (centres unmarked) [Example 52], in test [1], the “Inhibition (%)” value is 31** %. This molecule had a 50% inhibitory concentration (IC50) in the test with IL-8 (Homo sapiens, Monocyte, 20 h) of under 0.01 µM.

In the case of `CNCCCCOc1c(Cl)cc(C(=O)N[C@@H](Cc2ccccc2)C(=O)OC)c(O)c1C` [Example 10], the inhibition in vivo at 10 mg/kg in the test on ALT in blood was 77%. Besides, it took 0.6 µM to reach half-maximal inhibition with IL-8 (Homo sapiens, Monocyte, 20 h) (IC50).

For `CCOC(=O)C(Cc1ccccc1)NC(=O)c1cc(Cl)c(OCCCCN)c(Cl)c1O.Cl` (centres unmarked) [Example 19], in test [1], the “Inhibition (%)” value was 32** %. In the test with IL-8 (Homo sapiens, Monocyte, 20 h), this molecule had an IC50 of under 0.01 µM.

`NCCCCOc1c(Cl)cc(C(=O)N[C@@H](Cc2ccccc2)C(=O)O)c(O)c1Cl` [Example 127]: in the test on ALT in blood (dose 5 mg/kg), 5 mg/kg produced 82% inhibition in vivo. Also, half-maximal inhibition in the test on IL-8 (Homo sapiens, Monocyte, 20 h) (IC50) required 0.2 µM.

With `CNCCCCOc1cc(O)c(C(=O)N[C@@H](Cc2ccccc2)C(=O)OC)cc1Cl.Cl` [Example 9], the “Inhibition (%)” value in test [1] is listed as 21%. The IC50 in the test on IL-8 (Homo sapiens, Monocyte, 20 h) is under 0.3 µM.

In turn, `COC(=O)[C@H](Cc1ccccc1)NC(=O)c1cc(Cl)c(OCCN2CCN[C@@H](C)C2)c(Cl)c1O` [Example 61] returned an inhibition in vivo at 10 mg/kg in the test on ALT in blood of 6%.

For `COC(=O)[C@H](Cc1ccccc1)NC(=O)c1cc(Cl)c(OCCN2CCNC(C)C2)c(Cl)c1O` (some centres unmarked) [Example 60], in the test with ALT in blood, the inhibition in vivo at 10 mg/kg worked out at 42%. For the same molecule, the midpoint of inhibition with IL-8 (Homo sapiens, Monocyte, 20 h), the IC50, lay at 0.03 µM.

Take `COC(=O)[C@H](Cc1ccccc1)NC(=O)c1ccc(OCCCCCN)cc1O` [Example 5]: the IC50 in the test with IL-1 (setting [2]) was 75 µM; in the test on IL-8 (Homo sapiens, Monocyte, 20 h), 6 µM; in the test with TNF-α (setting [2]) it was 6 µM.

In the test on ALT in blood, `COC(=O)[C@H](Cc1ccccc1)NC(=O)c1cc(Cl)c(OCCCCNC(=N)N)c(Cl)c1O` [Example 32] returned an inhibition in vivo at 10 mg/kg of 78%. Half-maximal inhibition with IL-8 (Homo sapiens, Monocyte, 20 h) (IC50) was put at 0.5 µM.

In the test with ALT in blood, `COC(=O)[C@H](Cc1ccccc1)NC(=O)c1ccc(OCCCCN)cc1O.Cl` [Example 4] yielded an inhibition in vivo at 10 mg/kg of 42%. Also, the half-inhibitory concentration (IC50) stood at 3 µM with IL-1 (setting [2]); 2 µM in the test with IL-8 (Homo sapiens, Monocyte, 20 h); 2 µM in the test with TNF-α (setting [2]). Further, the “Inhibition (%)” value in test [1] was 38** %.

Regarding `CNCCCCOc1c(Cl)cc(C(=O)N[C@@H](Cc2ccccc2)C(=O)O)c(O)c1Cl` [Example 126, N-[3,5-Dichloro-2-hydroxy-4-(4-methylaminobutoxy)benzoyl]-L-phenylalanine hydrochloride], in the test with ALT in blood, the inhibition in vivo at 10 mg/kg stood at 27%. In the test on IL-8 (Homo sapiens, Monocyte, 20 h), this molecule showed a half-inhibitory concentration (IC50) of 0.8 µM.
